Patent US9365597B2, “Mitochondria-targeted inhibitors of cytochrome c peroxidase for protection from apoptosis” (Brock University, priority 2011, dated 2016)
Entries after “also recorded” stand apart in the source; their conditions may differ. Read-outs that look alike come from different tables or passages of the source.

How the values were obtained:
[1] = TPP-IOA levels in plasma, small intestine and bone marrow after i.p. injection (LC-MS/MS, SRM); format: in vivo; details: C57BL/6NTac, mouse, ip, 10 min after i.p. injection, 5 mg/kg body weight
Protocol: TPP-IOA and its hydrolysis products were extracted from plasma, small intestine and bone marrow tissue 10 min after TPP-IOA i.p. injection into animals (5 mg/kg body weight), using a standard Folch procedure for extraction of lipids^37. In one set of runs, intact TPP-IOA was assessed by SRM as described below. In an identical set of duplicate runs, hydrolyzed TPP-IOA (in the form of the TPP moiety, see below) was assessed by a different mass spectrometric method, MRM, as described below.
TPP-IOA (m/z 651) was assessed by SRM in a LCQ-Duo ion trap mass spectrometer (Thermo, Inc., Waltham, Mass.). Chromatography was performed on an Eclipse XDB reverse phase C18 column (4.6 mm×15 cm, Agilent Technologies, Santa Clara, Calif.) using an isocratic solvent system consisting of acetonitrile:water:triethylamine:acetic acid (450:50:2.5:2.5, v/v/v/v) and a flow rate of 0.4 ml/min. The transition measured was 651>303 (TPP-IOA to TPP-propyl moiety—water) within a 0.5 Da window. Instrument conditions were as follows: spray voltage, 4.5 kV, positive mode; sheath gas, 30; capillary temperature, 250° C.; tube lens, 20; capillary voltage, 26. The instrument was tuned for the appropriate parent ion and all parameters were optimized to maximize the transition during the SRM including tuning under appropriate flow conditions.

mouse embryonic cells = assay: Actinomycin D-induced cell death in mouse embryonic cells (Annexin V/PI); format: cell-based; details: 1 to 100 μM (BSA complexes), 100 ng ml^−1 ActD, 18 h
Protocol: IEOA or ISA were incubated in the presence of fatty acid-free bovine serum albumin (BSA) (Sigma) at a molar ratio of 5:1 at 37° C. for 30 min. Mouse embryonic cells were incubated with IEOA/BSA or ISA/BSA (100 μM) complexes for 30 min before the addition of 100 ng ml^−1 actinomycin D (ActD). After 18-h incubation with ActD, cell viability was analysed by flow cytometry using an Annexin V/PI kit. ActD-induced cell death in ˜34.2% of cells. […] Representative data with 100 μM IEOA/BSA and ISA/BSA complexes are shown. Data are means±s.d., n=3.

cyt c/TOCL complexes [2] = target: T1, cyt c/TOCL complexes (Equus caballus, UniProt P00004); assay: Peroxidase activity of cyt c/TOCL complexes, H2O2-induced oxidation of etoposide (EPR of phenoxyl radicals); format: biochemical; details: H2O2-driven oxidation of etoposide
T1 construct: purchased Sigma (St. Louis, Mo.)
Protocol: (§1) Peroxidase activity of cyt c was assessed by oxidation of Amplex Red, etoposide or TLCL (tetra-linoleoyl-cardiolipin). Measurements of Amplex Red oxidation were performed using fluorescence of its oxidation product resorufin. Cyt c (1 μM) was incubated with tetra-oleoyl-cardiolipin (TOCL) containing liposomes (CL/cyt c ratio 25:1). Then 50 μM Amplex Red and 50 μM H2O2 were added, and the incubation proceeded for an additional 20 min. Fluorescence was detected by employing a “Fusion α” universal microplate analyzer and by using an excitation wavelength of 535 nm and an emission wavelength of 590 nm. EPR spectra of etoposide phenoxyl radicals were recorded at 25° C. in gas permeable Teflon tubings (inner diameter, 0.8 mm; thickness, 0.013; Alpha Wire Corp., Elizabeth, N.J.). Volume of samples was 60 μL. The spectra were recorded under the following conditions: 335.3 mT, center field; 2 mT, sweep width; 0.04 mT, field modulation; 10 mW, microwave power; 0.1 s, time constant; 2 min, time scan. The time course of the etoposide radical EPR signal was obtained by repeated scanning of the field (0.15 mT, sweep width; 335.3 mT, center field) corresponding to a part of the EPR signal. Peroxidase activity of mitochondria was determined by the formation of resorufin from Amplex Red. Isolated mouse liver mitochondria (0.6 mg/ml) were incubated in the presence of 100 μM Amplex Red and 2 mM tert-butyl hydroperoxide (tBOOH). After incubation at room temperature for 20 min, fluorescence of resurufin was measured.
(§2) Peroxidase activity of cyt c was assessed by oxidation of Amplex Red, etoposide or TLCL as described above.

cyt c/TOCL complexes [3] = target: T1, cyt c/TOCL complexes; assay: Low-temperature (77 K) EPR of protein-immobilized (tyrosyl) radicals of cyt c/TOCL with H2O2; format: biochemical; details: cyt c 100 μM, H2O2 500 μM, EPR at 77 K
Protocol: EPR spectra of protein-immobilized (tyrosyl) radicals were recorded after the addition of H2O2 (500 μM) to cyt c (100 μM) incubated with tetra-oleoyl-cardiolipin (TOOL) liposomes at room temperature. After incubation for 20 s, the reaction was stopped by freezing the samples in liquid nitrogen. EPR spectra were obtained on a JEOL-REIX spectrometer with 100 kHz modulation (JEOL, Kyoto, Japan). EPR spectra from frozen samples were recorded at 77 K under the following conditions: center field, 3230 G; sweep width, 100 G; field modulation, 5 G; microwave power, 1 mW; receiver gain, 10^3; time constant, 0.1 s; time scan, 4 min.

mouse liver mitochondria = assay: Peroxidase activity of isolated mouse liver mitochondria (Amplex Red, tBOOH); format: biochemical; details: 0.6 mg/ml mitochondria, 100 μM Amplex Red, 2 mM tBOOH, 20 min
Protocol: Peroxidase activity of cyt c was assessed by oxidation of Amplex Red, etoposide or TLCL (tetra-linoleoyl-cardiolipin). Measurements of Amplex Red oxidation were performed using fluorescence of its oxidation product resorufin. Cyt c (1 μM) was incubated with tetra-oleoyl-cardiolipin (TOCL) containing liposomes (CL/cyt c ratio 25:1). Then 50 μM Amplex Red and 50 μM H2O2 were added, and the incubation proceeded for an additional 20 min. Fluorescence was detected by employing a “Fusion α” universal microplate analyzer and by using an excitation wavelength of 535 nm and an emission wavelength of 590 nm. EPR spectra of etoposide phenoxyl radicals were recorded at 25° C. in gas permeable Teflon tubings (inner diameter, 0.8 mm; thickness, 0.013; Alpha Wire Corp., Elizabeth, N.J.). Volume of samples was 60 μL. The spectra were recorded under the following conditions: 335.3 mT, center field; 2 mT, sweep width; 0.04 mT, field modulation; 10 mW, microwave power; 0.1 s, time constant; 2 min, time scan. […] Peroxidase activity of mitochondria was determined by the formation of resorufin from Amplex Red. […] After incubation at room temperature for 20 min, fluorescence of resurufin was measured.
Finally, the ability of ISA and IEOA to inhibit peroxidase activity using isolated mouse liver mitochondria was assessed. […]

cyt c/TOCL complexes [4] = target: T1, cyt c/TOCL complexes; assay: Peroxidase activity of cyt c/TOCL complexes, H2O2-induced oxidation of Amplex Red to resorufin; format: biochemical; details: for inhibition of peroxidase activity of cyt c/TOCL complexes (Amplex Red oxidation): cyt c 1 μM, CL/cyt c 25:1, 50 μM Amplex Red, 50 μM H2O2, 20 min; for inhibition of cyt c peroxidase compared with TPP-ISA: ratio of compound to cyt c of 2.5:1, TOCL:cyt c 25:1
Protocol: Conditions: cyt c (1 μM), H2O2 (50 μM), Amplex Red (50 μM). Experiments were performed in 20 mM HEPES buffer (pH 7.4) containing DTPA (100 μM), cyt c was incubated with DOPC/TOCL liposomes (1:1) at a ratio of TOCL:cyt c of 25:1.
as §1
Small unilamellar liposomes were prepared from dioleoylphosphatidylcholine (DOPC) and TOCL (1:1 ratio) or DOPC and TLCL (4:1 ratio) by sonication in HEPES buffer (20 mM with 100 μM diethylene triamine pentaacetic acid (DTPA) (pH 7.4) 3×60 sec, relaxation time 2 min, 4° C.).
as §2

cyt c/TOCL complexes [5] = target: T1, cyt c/TOCL complexes; assay: Haem-nitrosylation of cyt c/TOCL by nitroxyl from Angeli's salt, EPR at 77 K; format: biochemical; details: Angeli's salt 500 μM, 30 min
Protocol: Heme nitrosylation: Cyt c (100 μM) was incubated with a nitroxyl donor, Angeli's salt (500 μM), for 30 min at room temperature. The reaction was stopped by freezing the samples in liquid nitrogen. The EPR spectra of heme-nitrosylated cyt c were measured at 77 K under the following instrumental settings: center field, 3200 G; scan range, 500 G; field modulation, 5 G; microwave power, 10 mW; time constant, 0.1 s; scan time, 4 min; receiver gain, 10^3.

cyt c/TOCL complex = target: T2, cyt c/TOCL complex (Equus caballus, UniProt P00004); assay: Liquid-He (20 K) X-band EPR of haem-iron ligation, cyt c/TOCL complex; format: binding
T2 construct: purchased Sigma (St. Louis, Mo.)
Protocol: (§3) Conditions: native cyt c (300 μM), IEOA/cyt c (2:1), TOCL/IEOA/cyt c (20:2:1), 20 mM HEPES buffer, pH 7.4. Samples (200 μl) were placed in 3 mm o.d. suprasil quartz EPR tubes and frozen in liquid nitrogen for subsequent spectroscopic measurements. X-band (9 GHz) EPR spectra were recorded on a Bruker ESP 300 spectrometer equipped with an Oxford Instruments ESR 910 flow cryostat for ultra-low-temperature measurements. Spectra were recorded at 9.8 G modulation amplitude and 200 μW microwave power. The microwave frequency was calibrated by a frequency counter and the magnetic field was calibrated with a gaussmeter. The temperature was calibrated with carbon-glass resistors (CGR-1-1000) from LakeShore. This instrument and the software (SpinCount) to analyse the EPR spectra were provided by Professor Mike Hendrich, Carnegie Mellon University.

native ferri-cyt c = target: T3, native ferri-cyt c (Equus caballus, UniProt P00004); assay: Liquid-He (20 K) X-band EPR of haem-iron ligation, native cyt c; format: binding; details: pH 7.4, 20 K, no TOCL
T3 construct: purchased Sigma (St. Louis, Mo.)
Protocol: as §3

T1 sequence (P00004 2-105 limits assumed, one chain of several): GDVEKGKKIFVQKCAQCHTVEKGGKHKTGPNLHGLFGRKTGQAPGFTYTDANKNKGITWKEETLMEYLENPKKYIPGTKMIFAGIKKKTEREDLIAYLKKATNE
T2 sequence (P00004 2-105 limits assumed, one chain of several): as above
T3 sequence (P00004 2-105 limits assumed): as the sequence (P00004 2-105 limits assumed, one chain of several) above

SMILES	protection against ActD-induced cell death (mouse embryonic cells)	inhibition of peroxidase activity of cyt c/TOCL complexes (etoposide oxidation, EPR) (cyt c/TOCL complexes [2])	H2O2-dependent generation of protein-immobilized (tyrosyl) radicals (cyt c/TOCL complexes [3])	peroxidase activity of isolated mouse liver mitochondria (mouse liver mitochondria)	inhibition of peroxidase activity of cyt c/TOCL complexes (Amplex Red oxidation) (cyt c/TOCL complexes [4])	EPR signal of haem-nitrosylated cyt c/TOCL (cyt c/TOCL complexes [5])	inhibition of cyt c peroxidase compared with TPP-ISA (cyt c/TOCL complexes [4])	also measured
CCCCCCC(C/C=C\CCCCCCCC(=O)OCCC[P+](c1ccccc1)(c1ccccc1)c1ccccc1)n1ccnc1.[Br-] (stereo not drawn) [TPP-IOA, 9-(Z)-(3-(12-imidazol-1-yl)octadeca-9-enoyloxy)propyl)triphenylphosphonium bromide]	–	–	–	–	–	–	–	concentration at 10 min ([1]; bone marrow, read-out: TPP-IOA level in bone marrow): 0.2 ng/g; concentration at 10 min ([1]; plasma, read-out: TPP-IOA level in plasma): 54 ng/mL; concentration at 10 min ([1]; small intestine, read-out: TPP-IOA level in small intestine): 1.5 ng/g
CCCCCCC(C/C=C/CCCCCCCC(=O)O)n1ccnc1 (stereo not drawn) [IEOA, (E)-12-(1H-imidazol-1-ium-1-yl)octadec-9-enoic acid]	exerted no protection against apoptosis; also recorded: no detectable protection	potent inhibitors	effectively quenched generation of Tyr. radicals	suppressed peroxidase activity in a concentration-dependent manner	potent inhibitors	concentration-dependent decrease of the EPR signal	–	–
CCCCCCCCCCCCC(CCCCC(=O)OCCC[P+](c1ccccc1)(c1ccccc1)c1ccccc1)n1ccnc1.[Br-] (racemic) [TPP-6-imidazole-stearic acid, (3-((6-(1H-imidazol-1-yl)octadecanoyl)oxy)propyl)triphenylphosphonium bromide]	–	–	–	–	–	–	significantly better inhibitors of cyt c peroxidase than TPP-ISA	–
CCCCCCC(CCCCCCCCCCC(=O)O)n1ccnc1 (stereo not drawn) [ISA, 12-(1H-imidazol-1-yl)octadecanoic acid]	exerted no protection against apoptosis; also recorded: no detectable protection	potent inhibitors	–	suppressed peroxidase activity in a concentration-dependent manner	potent inhibitors	concentration-dependent decrease of the EPR signal	–	change of haem-iron coordination in cyt c (Met80 substituted by imidazole moiety) (cyt c/TOCL complex): able to change haem-iron coordination in cyt c
CCCCCCC(C/C=C\CCCCCCCC(=O)O)n1ccnc1 (stereo not drawn) [IOA, 12-(Imidazol-1-yl)-(Z)-9-octadecaenoate]	–	potent inhibitors	effectively quenched generation of Tyr. radicals	–	potent inhibitors	–	–	EPR spectrum (axial haem coordination) of native ferri-cyt c on addition of compound (native ferri-cyt c): no change in the EPR spectrum
CCCCCCCCCCC(CCCCCCC(=O)OCCC[P+](c1ccccc1)(c1ccccc1)c1ccccc1)n1ccnc1.[Br-] (racemic) [TPP-8-imidazole-stearic acid, (3-((8-(1H-imidazol-1-yl)octadecanoyl)oxy)propyl)triphenylphosphonium bromide]	–	–	–	–	–	–	significantly better inhibitors of cyt c peroxidase than TPP-ISA	–
